Structures are written as SMILES.

Test [1] deals with T1, human muscarinic M2 receptor (Homo sapiens, UniProt P08172).
T1 sequence (P08172 1-466): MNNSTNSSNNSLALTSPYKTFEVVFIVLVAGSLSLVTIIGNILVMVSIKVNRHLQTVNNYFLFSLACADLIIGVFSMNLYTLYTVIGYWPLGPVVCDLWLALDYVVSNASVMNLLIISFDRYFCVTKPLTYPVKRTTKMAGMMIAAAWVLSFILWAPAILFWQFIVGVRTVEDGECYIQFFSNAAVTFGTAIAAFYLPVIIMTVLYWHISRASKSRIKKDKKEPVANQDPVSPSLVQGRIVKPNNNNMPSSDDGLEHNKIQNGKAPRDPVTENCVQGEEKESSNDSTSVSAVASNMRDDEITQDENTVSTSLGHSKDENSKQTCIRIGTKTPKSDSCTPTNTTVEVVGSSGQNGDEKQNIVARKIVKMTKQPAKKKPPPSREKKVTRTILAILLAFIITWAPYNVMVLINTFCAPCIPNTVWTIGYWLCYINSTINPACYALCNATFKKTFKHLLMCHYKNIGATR
As to the kind of experiment: Alphascreen Surefire phospho-ERK1/2 functional assay, M2. The conditions noted are these: for % Emax cf. ACh, M2: CHO cells stably expressing human M2, relative to ACh; for EC50: CHO cells stably expressing human M2, read-out: pEC50 M2 (converted); for Emax: CHO, read-out: % Emax cf. ACh, M2, CHO cells stably expressing human M2, relative to ACh. In kind it is cell-based. (In general: Alpha assays give light when donor and acceptor beads are brought close together.)

Test [2] concerns the target T2, human muscarinic M3 receptor (Homo sapiens, UniProt P20309).
T2 construct: expressed in transfected cells
As to the kind of experiment: Alphascreen Surefire phospho-ERK1/2 functional assay, M3. In kind it is cell-based. The conditions noted are these: for % Emax cf. ACh, M3: CHO cells stably expressing human M3, relative to ACh; for EC50: CHO cells stably expressing human M3, read-out: pEC50 M3 (converted); for Emax: CHO, read-out: % Emax cf. ACh, M3, CHO cells stably expressing human M3, relative to ACh.

Test [3] concerns the target T3, human muscarinic M4 receptor (Homo sapiens, UniProt P08173).
T3 construct: expressed in transfected cells
T3 sequence (P08173 1-479): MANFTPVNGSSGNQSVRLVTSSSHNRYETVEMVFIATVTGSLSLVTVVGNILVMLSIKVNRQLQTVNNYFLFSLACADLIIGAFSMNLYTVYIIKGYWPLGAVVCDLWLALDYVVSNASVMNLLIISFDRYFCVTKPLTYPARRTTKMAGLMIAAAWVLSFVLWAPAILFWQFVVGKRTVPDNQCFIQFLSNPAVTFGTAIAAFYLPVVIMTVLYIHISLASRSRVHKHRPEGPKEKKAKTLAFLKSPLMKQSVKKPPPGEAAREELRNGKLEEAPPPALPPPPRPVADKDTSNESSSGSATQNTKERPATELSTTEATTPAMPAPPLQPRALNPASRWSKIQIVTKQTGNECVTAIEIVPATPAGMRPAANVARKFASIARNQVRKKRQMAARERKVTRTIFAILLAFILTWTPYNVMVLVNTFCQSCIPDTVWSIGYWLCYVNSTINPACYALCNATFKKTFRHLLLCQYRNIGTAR
The test can be described thus: Alphascreen Surefire phospho-ERK1/2 functional assay, M4. In kind it is cell-based. The conditions noted are these: for % Emax cf. ACh, M4: CHO cells stably expressing human M4, relative to ACh; for EC50: CHO cells stably expressing human M4, read-out: pEC50 M4 (converted); for Emax: CHO, read-out: % Emax cf. ACh, M4, CHO cells stably expressing human M4, relative to ACh.

In test [4] the test system is scopolamine-induced amnesia. As to the kind of experiment: Passive avoidance, scopolamine-induced amnesia. In kind it is in vivo. The following applies: 90 minutes prior to training. On the procedure: Studies were carried out as described previously by Foley et al., (2004) Neuropsychopharmacology. In the passive avoidance task scopolamine administration (1 mg/kg, i.p.) at 6 hours following training rendered animals amnesic of the paradigm. A dose range of 3, 10, and 30 mg/kg (po) free base, administered 90 minutes prior to the training period via oral gavage, was examined.

In test [5] the target is T4, human muscarinic M1 receptor (Homo sapiens, UniProt P11229).
T4 sequence (P11229 1-460): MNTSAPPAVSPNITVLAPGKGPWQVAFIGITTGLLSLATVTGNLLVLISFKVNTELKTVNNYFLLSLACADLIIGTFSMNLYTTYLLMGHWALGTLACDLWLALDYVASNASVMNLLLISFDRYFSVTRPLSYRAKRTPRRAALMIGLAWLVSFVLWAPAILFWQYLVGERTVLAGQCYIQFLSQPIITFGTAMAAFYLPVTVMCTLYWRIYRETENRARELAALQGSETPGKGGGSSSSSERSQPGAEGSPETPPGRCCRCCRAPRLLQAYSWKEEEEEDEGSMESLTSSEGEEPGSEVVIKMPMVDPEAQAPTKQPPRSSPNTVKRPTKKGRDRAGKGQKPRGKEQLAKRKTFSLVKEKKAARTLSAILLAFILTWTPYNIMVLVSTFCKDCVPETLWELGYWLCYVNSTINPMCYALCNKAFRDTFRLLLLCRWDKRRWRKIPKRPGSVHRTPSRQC
The test can be described thus: Alphascreen Surefire phospho-ERK1/2 functional assay, M1. In kind it is cell-based. The following applies: for EC50: CHO cells stably expressing human M1, read-out: pEC50 M1 (converted); for % Emax cf. ACh, M1: CHO cells stably expressing human M1, relative to ACh; for Emax: CHO, read-out: % Emax cf. ACh, M1, CHO cells stably expressing human M1, relative to ACh.

T2 sequence (P20309 whole entry): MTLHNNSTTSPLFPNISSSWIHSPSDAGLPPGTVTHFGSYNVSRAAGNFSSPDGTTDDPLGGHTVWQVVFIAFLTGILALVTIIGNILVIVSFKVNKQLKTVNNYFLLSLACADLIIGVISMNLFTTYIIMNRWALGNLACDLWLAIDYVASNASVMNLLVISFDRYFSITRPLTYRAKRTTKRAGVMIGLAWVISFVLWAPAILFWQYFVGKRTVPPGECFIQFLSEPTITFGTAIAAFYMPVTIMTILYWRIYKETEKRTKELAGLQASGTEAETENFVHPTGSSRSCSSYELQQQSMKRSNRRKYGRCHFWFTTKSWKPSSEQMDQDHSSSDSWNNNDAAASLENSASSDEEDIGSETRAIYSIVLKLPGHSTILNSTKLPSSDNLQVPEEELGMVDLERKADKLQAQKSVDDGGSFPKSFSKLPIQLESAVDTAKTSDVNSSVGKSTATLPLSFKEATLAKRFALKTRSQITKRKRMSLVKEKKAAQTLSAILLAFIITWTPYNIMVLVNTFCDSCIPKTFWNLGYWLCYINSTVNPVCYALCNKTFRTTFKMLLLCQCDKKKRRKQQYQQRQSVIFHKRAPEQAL

Turning to `CCOC(=O)N1C2CCC1CC(N1CCC3(CC1)CNC(=O)C3)C2` (single isomer, unassigned) [Example 2-2 Isomer 1, ethyl 3-(3-oxo-2,8-diazaspiro[4.5]dec-8-yl)-8-azabicyclo[3.2.1]octane-8-carboxylate], the “% Emax cf. ACh, M2” value in test [1] is given as 0%. Besides, the “% Emax cf. ACh, M3” value in test [2] (listed as 2-2 Isomer 1) came out at 17%. In test [3] (listed as 2-2 Isomer 1), the “% Emax cf. ACh, M4” value turned out to be 53%. Further, in test [4] (3, 10 and 30 mg/kg po free base, scopolamine 1 mg/kg i.p.), the “reversal of scopolamine-induced amnesia in passive avoidance” value is “reverse scopolamine-induced amnesia of the paradigm in a dose-dependent manner”. Besides, in test [4] (po, scopolamine 1 mg/kg i.p. 6 hours following training, read-out: approximate ED50, reversal of scopolamine-induced amnesia), the ED50 is roughly 10 mg/kg.
Take `CCOC(=O)N1C2CCCC1CC(N1CCC3(CC1)CNC(=O)C3)C2` (single isomer, unassigned) [Example 5-1 Isomer 2, ethyl 3-(3-oxo-2,8-diazaspiro[4.5]dec-8-yl)-9-azabicyclo[3.3.1]nonane-9-carboxylate]: the EC50 is 158 nM in test [5], greater than 20000 nM in test [1] and greater than 20000 nM in test [3]. Besides, in test [5] (listed as 5-1 Isomer 2), the “% Emax cf. ACh, M1” value turned out to be 77%. The “% Emax cf. ACh, M2” value in test [1] was 14%. Besides, the “% Emax cf. ACh, M3” value in test [2] came to 6%. Also, the “% Emax cf. ACh, M4” value in test [3] (listed as 5-1 Isomer 2) is on record as 8%.
On to `C#CCOC(=O)N1C2CCCC1CC(N1CCC3(CC1)CNC(=O)C3)C2` (single isomer, unassigned) [Example 5-2 Isomer 1, prop-2-yn-1-yl 3-(3-oxo-2,8-diazaspiro[4.5]dec-8-yl)-9-azabicyclo[3.3.1]nonane-9-carboxylate], for which the EC50 in test [5] was 100 nM; in test [1], greater than 20000 nM; in test [2], greater than 20000 nM; in test [3], 79.4 nM. Besides, the “% Emax cf. ACh, M1” value in test [5] (listed as 5-2 Isomer 1) is reported as 78%. The Emax was found to be 3% in test [1] and 37% in test [3]. Further, the “% Emax cf. ACh, M3” value in test [2] (listed as 5-2 Isomer 1) is 9%.
`C#CCOC(=O)N1C2CCCC1CC(N1CCC3(CC1)CNC(=O)C3)C2` (single isomer, unassigned) [Example 5-2 Isomer 2, prop-2-yn-1-yl 3-(3-oxo-2,8-diazaspiro[4.5]dec-8-yl)-9-azabicyclo[3.3.1]nonane-9-carboxylate]: the “% Emax cf. ACh, M1” value in test [5] (listed as 5-2 Isomer 2) is on record as 48%. In test [1], the “% Emax cf. ACh, M2” value is reported as 3%. In test [2] (listed as 5-2 Isomer 2), the “% Emax cf. ACh, M3” value stood at 4%. Moreover, in test [3], the EC50 was 63.1 nM and the “% Emax cf. ACh, M4” value worked out at 20%.
Regarding `CCOC(=O)N1C2CCCC1CC(N1CCC3(CC1)CNC(=O)O3)C2` (single isomer, unassigned) [Example 5-4 Isomer 2], in test [5], the EC50 is 158 nM and the “% Emax cf. ACh, M1” value came out at 72%. Besides, in test [1], the EC50 was greater than 20000 nM and the Emax turned out to be 2%. Moreover, in test [2], the EC50 is greater than 20000 nM and the Emax is 0%. In test [3] (listed as 5-4 Isomer 2), the “% Emax cf. ACh, M4” value stood at 8%.
As for `COC(=O)N1CC2CC(N3CCC4(CC3)CNC(=O)C4)CC1C2` (single isomer, unassigned) [Example 6-1 Isomer 2], the EC50 is 20 nM in test [5], greater than 20000 nM in test [1], greater than 20000 nM in test [2] and 63.1 nM in test [3]. For the same molecule, the “% Emax cf. ACh, M1” value in test [5] (listed as 6-1 Isomer 2) is recorded as 104%. Besides, the Emax in test [1] was 18%; in test [2], 5%. Besides, the “% Emax cf. ACh, M4” value in test [3] worked out at 33%.
On to `CCOC(=O)N1CC2CC(N3CCC4(CC3)CNC(=O)C4)CC1C2` (single isomer, unassigned) [Example 6-2 Isomer 2], for which the EC50 is 2 nM in test [5], 15.8 nM in test [1], greater than 20000 nM in test [2] and 3.98 nM in test [3]. Further, the maximum response (Emax) in test [5] stood at 118%; in test [1] it was 30%; in test [2] it was 18%; in test [3], 78%.
For the molecule `CCOC(=O)N1CC2CC(N3CCC4(CC3)CNC(=O)O4)CC1C2` (single isomer, unassigned) [Example 6-3 Isomer 2], the EC50 in test [5] is 25.1 nM; in test [1], 1260 nM; in test [2] it was greater than 20000 nM; in test [3], 39.8 nM. In addition, the maximal response (Emax) in test [5] worked out at 112%; in test [1], 24%; in test [2], 48%; in test [3] it was 81%.
On to `CCOC(=O)N1C2CCC1CC(N1CCCC3(CC1)CNC(=O)C3)C2` (single isomer, unassigned) [Example 9-1 Isomer 2, ethyl 3-(3-oxo-2,8-diazaspiro[4.6]undec-8-yl)-8-azabicyclo[3.2.1]octane-8-carboxylate], for which the EC50 in test [5] is 3.98 nM; in test [1], greater than 20000 nM; in test [2], greater than 20000 nM; in test [3], 2.51 nM. In addition, the Emax came out at 103% in test [5], 12% in test [1], 22% in test [2] and 60% in test [3].
On to `CCOC(=O)N1C2CC[C@@H]1C[C@H](N1CCC3(CC1)CC(=O)N(O)C3)C2` [Example 2-24, ethyl (3-endo)-3-(2-hydroxy-3-oxo-2,8-diazaspiro[4.5]dec-8-yl)-8-azabicyclo[3.2.1]octane-8-carboxylate], for which the EC50 in test [5] was 63.1 nM; in test [1], greater than 20000 nM; in test [2] it was greater than 20000 nM; in test [3], greater than 20000 nM. For the same molecule, the maximum response (Emax) in test [5] amounted to 88%; in test [1], 4%; in test [2] it was 4%; in test [3], 29%.

For orientation: ED50 means the midpoint of the dose-response relation. Usually Emax stands for the greatest response seen or fitted, relative to the assay's reference.

The values above are taken from patent publication US12202843B2, “Muscarinic receptor agonists” (Nxera Pharma UK Limited, priority 2014, dated 2025).
